From patent US11618772B2 (Kineta Chronic Pain, LLC, priority 2014, dated 2023)

C[C@@H](O)[C@@H]1NC(=O)[C@@H]2CSSC[C@@H](C(=O)N[C@@H](Cc3ccc(O)cc3)C(N)=O)NC(=O)[C@H](CCC(N)=O)NC(=O)[C@H](Cc3ccc(O)c(I)c3)NC(=O)[C@H](CCCNC(N)=O)NC(=O)[C@H](CSSC[C@H](NC(=O)CN)C(=O)N2)NC(=O)[C@H](CCCNC(=N)N)NC(=O)[C@@H]2CCCN2C(=O)[C@H](CC(=O)O)NC1=O [CSP-4-NH2, GCCTDPRCX11X12QCY-amide]
stability in human plasma (Citrate): increased stability compared to CSP-4
